# “And” between values parts separate entries of the source, which are not always exact repeats. Equal values may be shown once.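 Where inhibition never reached the appropriate level, the endpoint shown equals the highest concentration tested. Otherwise, values were interpolated linearly from a five-concentration, 48-hour dose response in 96-well plates. The concentration for 50% growth inhibition is given as GI50. TGI: concentration producing complete growth inhibition.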
# Columns and labels:
# Assay in all cases: inhibition of tumour cell growth, NCI panel, 48 h
# HCC-2998 colon = tested on: HCC-2998 colon
# HCT-116 colon = tested on: HCT-116 colon
# HL-60(TB) leukemia = tested on: HL-60(TB) leukemia
# M14 melanoma = tested on: M14 melanoma
# MALME-3M melanoma = tested on: MALME-3M melanoma
# MDA-MB-231 breast = tested on: MDA-MB-231 breast
# NCI-H23 lung = tested on: NCI-H23 lung
# NCI-H522 lung = tested on: NCI-H522 lung
# UACC-62 melanoma = tested on: UACC-62 melanoma
# K-562 leukemia = tested on: K-562 leukemia
SMILES,GI50 (HCC-2998 colon),TGI (HCC-2998 colon),GI50 (HCT-116 colon),TGI (HCT-116 colon),GI50 (HL-60(TB) leukemia),TGI (HL-60(TB) leukemia),GI50 (M14 melanoma),TGI (M14 melanoma),GI50 (MALME-3M melanoma),TGI (MALME-3M melanoma),GI50 (MDA-MB-231 breast),TGI (MDA-MB-231 breast),GI50 (NCI-H23 lung),TGI (NCI-H23 lung),GI50 (NCI-H522 lung),TGI (NCI-H522 lung),GI50 (UACC-62 melanoma),TGI (UACC-62 melanoma),GI50 (K-562 leukemia),TGI (K-562 leukemia)
Nc1ncn([C@H]2C[C@H](OP(=O)(O)OC[C@H]3O[C@@H](n4cnc5c(=O)[nH]c(N)nc54)C[C@@H]3O)[C@@H](CO)O2)c(=O)n1,> 100 µM,> 100 µM,23 µM,> 100 µM,> 100 µM,> 100 µM,> 100 µM,> 100 µM,> 100 µM,> 100 µM,> 100 µM,> 100 µM,> 100 µM,> 100 µM,> 100 µM,> 100 µM,> 100 µM,> 100 µM,–,–
O=C1c2c(Cl)c(Cl)c(Cl)c(Cl)c2C(=O)C2(Cl)CC=CCC12Cl (configuration not stated),1.78 µM,3.3 µM,1.76 µM,3.32 µM,1.9 µM,5.04 µM,1.67 µM,3.19 µM,2.03 µM,4.16 µM,1.71 µM,3.13 µM,1.84 µM,3.94 µM,1.76 µM,3.52 µM,1.67 µM,3.27 µM,1.09 µM,3.59 µM
COc1cc(CCNC(=O)OC(C)(C)C)c2c(c1OC)SSSSS2,–,–,5.51 µM,> 100 µM,2.92 µM,13.4 µM,4.13 µM,50.7 µM,2.48 µM,4.94 µM,2.58 µM,5.82 µM,3.56 µM,20.3 µM,2.1 µM,4.18 µM,3.93 µM,15.5 µM,2.45 µM,21.3 µM
O=c1oc2ccc(Br)cc2c(=O)n1-c1ccc(Cl)cc1F,2.68 µM,9.53 µM,1.14 µM,4.33 µM,1.12 µM,4.96 µM,0.925 µM,6.24 µM,0.664 µM,3.32 µM,0.897 µM,5.99 µM,1.03 µM,4.77 µM,0.586 µM,7.69 µM,0.33 µM,1.41 µM,0.646 µM,> 100 µM
NC(=O)c1cc(Br)ccc1NC(=O)/C=C/c1ccccc1,28.1 µM,> 100 µM,1.24 µM,> 100 µM,0.876 µM,4.11 µM,1.96 µM,> 100 µM,11.6 µM,> 100 µM,2.87 µM,> 41.4 µM,10.8 µM,> 100 µM,0.981 µM,22 µM,1.24 µM,> 100 µM,0.829 µM,> 34.4 µM
O=C(c1ccccc1)c1nc2ccc(C(F)(F)F)cc2nc1N1CCN(c2ccccc2)CC1,–,–,24.7 µM,53.7 µM,30.9 µM,> 100 µM,23.2 µM,55.3 µM,48.2 µM,> 100 µM,23.4 µM,63.9 µM,25.7 µM,69.5 µM,34.6 µM,91.3 µM,18.5 µM,43.2 µM,–,–
O=C1CC(CC(OCc2ccccc2)C(OCc2ccccc2)C(COCc2ccccc2)OCc2ccccc2)CC(=O)N1 (configuration not stated),> 100 µM and 12.9 µM,> 100 µM and 42.9 µM,–,> 100 µM and 34.2 µM,–,> 100 µM and 25.4 µM,> 100 µM and 19.8 µM,> 100 µM,> 100 µM and 15.5 µM,> 100 µM and 32.4 µM,–,23.7 µM,> 100 µM and 18.6 µM,> 100 µM,–,–,–,–,–,> 100 µM
C/C=C(\C)C(=O)O[C@H]1C=CC(=O)O[C@H]1COC(=O)[C@H](C)O,14.9 µM,30 µM,2.72 µM,10.9 µM,2.34 µM,6.9 µM,7.51 µM,23.1 µM,5.5 µM,15.8 µM,12.1 µM,28.3 µM,15.3 µM,36.9 µM,7.1 µM,23.7 µM,7.71 µM,21 µM,3.69 µM,17.6 µM
COc1cc(CCC(=O)NC[C@@H](O)c2ccccc2)ccc1O,–,–,> 100 µM,> 100 µM,> 100 µM,> 100 µM,> 100 µM,> 100 µM,> 100 µM,> 100 µM,> 100 µM,> 100 µM,> 100 µM,> 100 µM,> 100 µM,> 100 µM,> 100 µM,> 100 µM,56.8 µM,> 100 µM
CCOC(=O)c1cc(NS(=O)(=O)c2ccc(C)cc2)cc(C(=O)OCC)c1,19.5 µM,70.8 µM,39.5 µM,> 100 µM,26.5 µM,> 100 µM,52.5 µM,> 100 µM,> 100 µM,> 100 µM,34.9 µM,> 100 µM,38.5 µM,> 100 µM,34.5 µM,> 100 µM,44.2 µM,> 100 µM,40.2 µM,> 100 µM
CC1(C)CCC(C)(C)c2cc(NC(=O)c3ccc(C(=O)O)cc3)ccc21,–,> 60 µM,–,55.7 µM,–,> 100 µM,–,> 65.1 µM,–,60.1 µM,–,> 90.5 µM,–,53.9 µM,–,> 89.3 µM,–,39.4 µM,–,> 100 µM
C=CC(=O)N1CC[C@H](n2nc(C#Cc3cc(OC)cc(OC)c3)c3c(N)ncnc32)C1,17.2 µM,> 100 µM,6.04 µM,> 100 µM,6.23 µM,70.4 µM,15.3 µM,> 100 µM,15.6 µM,> 100 µM,4.07 µM,> 100 µM,17.5 µM,> 100 µM,7.56 µM,37.9 µM,6.95 µM,> 100 µM,13.2 µM,> 100 µM
Cc1cccc(Cl)c1NC(=O)c1cnc(Nc2cc(N3CCOCC3)cc(S(C)(=O)=O)c2)s1,> 2.53 µM,> 10 µM,0.313 µM,> 10 µM,9.76 µM,> 10 µM,4.01 µM,> 10 µM,> 4.16 µM,> 10 µM,0.141 µM,> 3.4 µM,> 10 µM,> 10 µM,0.264 µM,> 10 µM,0.922 µM,> 10 µM,0.00569 µM,> 10 µM
